# According to publication PMC6272674, “Selected Compounds Structurally Related to Acyclic Sesquiterpenoids and Their Antibacterial and Cytotoxic Activity” (Molecules, 2015):
# Tested on: not listed separately
# Test: MTT viability, MEWO
# Format: cell-based, human
# Settings: human, MEWO malignant melanoma cells, 1000 µM (IC50 exceeded 1000 µM), read-out: viability ± standard deviation at 1000 µM
# Procedure: (§1) Cell lines and in vitro culture conditions: The human promyelocytic leukaemia cell line HL-60 was obtained from the Centre of Molecular and Macromolecular Biology in Łódź, Poland and was cultured in RPMI 1640 medium with 20% heat-inactivated fetal bovine serum (FBS). To reduce spontaneous differentiation, the cells were never allowed to exceed a concentration of 1.0 × 10^6 cells/mL. The human keratinocyte cell line HaCaT was obtained from Cell Lines Service, Germany (CLS) and cultured in DMEM medium with 10% FBS. Human colorectal adenocarcinoma HT29 and normal epithelial IEC-6 cell lines (from ATCC) were cultured in DMEM medium with 10% FBS. The human skin melanoma cell line MEWO (from CLS) was cultured in DMEM:F12 supplemented with 2 mM L-glutamine and 10% FBS. Human fibroblasts from gingiva isolated from original tissue, HFIB-G, (from Provitro) were cultured in Quantum 333 (from Immunique). The media were supplemented with 100 U/mL penicillin and 100 µg/mL streptomycin; all media components were obtained from Life Technologies. The adherent cell lines used in the studies were seeded on microplates before they exceeded 80% of confluence. Cells were cultured at 37 °C in 5% CO2 air atmosphere/95% air atmosphere.
# (§2) Cytotoxic activity: The cells (the density for HL-60 was 0.5 × 10^4 cells/100 µL, otherwise it was 1 × 10^4 cells/100 µL) were plated into each well of 96-well microtiter plates and, after their attachment to the plate surface, treated with 10 µL of the indicated concentrations of compounds for 24 h. Viability was determined by MTT assay following the treatment. MTT (3-[4.5-dimethylthiazol-2-yl]-2.5-diphenyltetrazolium bromide; Sigma, St. Louis, MO, USA) solution was added to each well and incubated for another 4 h. The resulting MTT-formazan product was dissolved by the addition of lysis buffer (20% SDS and 50% DMF). The amount of formazan was determined by measuring absorbance at 570 nm with a Synergy 2 microplate reader (BioTek, Winooski, VT, USA) operated by the Gen5 program. The experiments were conducted three times with five replications. The results are expressed as an optical density ratio of the treatment to control. All data are presented as means ± SD.
row,Compound,"viability at 24 h, 1000 µM"
1,C=CC(C)(O)CC(C)CCC=C(C)C (stereo not shown) [Compound 15],104%
2,C=CC(C)(O)CCC(C)CCC=C(C)C (stereo not shown) [Compound 16],100%
3,C=CC(C)(O)C(C)CC(C)CCC=C(C)C (stereo not shown) [Compound 17],112%
4,"CC(=O)CCC=C(C)CCC=C(C)C [Geranyl acetone (1), geranyl acetone, reference compound]",93%

# Tested on: not listed separately
# Test: MTT viability, HT29
# Format: cell-based, human
# Settings: human, HT29 colorectal adenocarcinoma cells, 1000 µM (IC50 exceeded 1000 µM), read-out: viability ± standard deviation at 1000 µM
# Procedure: as §1, §2
row,Compound,"viability at 24 h, 1000 µM"
1,C=CC(C)(O)CC(C)CCC=C(C)C (stereo not shown) [Compound 15],104%
2,C=CC(C)(O)CCC(C)CCC=C(C)C (stereo not shown) [Compound 16],102%
3,C=CC(C)(O)C(C)CC(C)CCC=C(C)C (stereo not shown) [Compound 17],108%
4,"CC(=O)CCC=C(C)CCC=C(C)C [Geranyl acetone (1), geranyl acetone, reference compound]",98%

# Tested on: Promyelocytic Leukaemia HL-60
# Test: MTT viability, HL-60
# Format: cell-based, human
# Settings: HL-60, MTT, 24 h, range 10–1000 µM; read-out: half maximal inhibitory concentration (IC50), interpolated
# Procedure: as §1, §2
row,IC50,Compound
1,950 µM,C=CC(C)(O)CCC(C)CCC=C(C)C (stereo not shown) [Compound 16]

# Same assay, conditions: Homo sapiens, HL-60, 24 h, HL-60, MTT, range 10–1000 µM, read-out: half maximal inhibitory concentration (IC50), interpolated
row,IC50,Compound
1,750 µM,C=CC(C)(O)CC(C)CCC=C(C)C (stereo not shown) [Compound 15]
2,~1000 µM,C=CC(C)(O)CCC(C)CCC=C(C)C (stereo not shown) [Compound 16]
3,750 µM,C=CC(C)(O)C(C)CC(C)CCC=C(C)C (stereo not shown) [Compound 17]
4,~295 µM,"CC(=O)CCC=C(C)CCC=C(C)C [Geranyl acetone (1), geranyl acetone, reference compound]"

# Tested on: not listed separately
# Test: MTT viability, HFIG
# Format: cell-based, human
# Settings: human, HFIG (HFIB-G) gingival fibroblasts, 1000 µM (IC50 exceeded 1000 µM), read-out: viability ± standard deviation at 1000 µM
# Procedure: as §1, §2
row,Compound,"viability at 24 h, 1000 µM"
1,C=CC(C)(O)CC(C)CCC=C(C)C (stereo not shown) [Compound 15],96%
2,C=CC(C)(O)CCC(C)CCC=C(C)C (stereo not shown) [Compound 16],106%
3,C=CC(C)(O)C(C)CC(C)CCC=C(C)C (stereo not shown) [Compound 17],87%
4,"CC(=O)CCC=C(C)CCC=C(C)C [Geranyl acetone (1), geranyl acetone, reference compound]",82%

# Tested on: not listed separately
# Test: MTT viability, HaCaT
# Format: cell-based, human
# Settings: human, HaCaT keratinocytes, 1000 µM (IC50 exceeded 1000 µM), read-out: viability ± standard deviation at 1000 µM
# Procedure: as §1, §2
row,Compound,"viability at 24 h, 1000 µM"
1,C=CC(C)(O)CC(C)CCC=C(C)C (stereo not shown) [Compound 15],90%
2,C=CC(C)(O)CCC(C)CCC=C(C)C (stereo not shown) [Compound 16],89%
3,C=CC(C)(O)C(C)CC(C)CCC=C(C)C (stereo not shown) [Compound 17],95%
4,"CC(=O)CCC=C(C)CCC=C(C)C [Geranyl acetone (1), geranyl acetone, reference compound]",89%

# Tested on: not listed separately
# Test: MTT viability, IEC6
# Format: cell-based
# Settings: rat, IEC-6 small intestine epithelial cells, 1000 µM (IC50 exceeded 1000 µM), read-out: viability ± standard deviation at 1000 µM
# Procedure: as §1, §2
row,Compound,"viability at 24 h, 1000 µM"
1,C=CC(C)(O)CC(C)CCC=C(C)C (stereo not shown) [Compound 15],110%
2,C=CC(C)(O)CCC(C)CCC=C(C)C (stereo not shown) [Compound 16],113%
3,C=CC(C)(O)C(C)CC(C)CCC=C(C)C (stereo not shown) [Compound 17],98%
4,"CC(=O)CCC=C(C)CCC=C(C)C [Geranyl acetone (1), geranyl acetone, reference compound]",79%

# Tested on: Staphylococcus aureus ATCC 43300
# Test: not given
# Set-up: method as in doi:10.1002/ffj.3238
# Settings: data presented by the authors before; cited from earlier work
row,Compound,Minimum Inhibitory Concentrations MIC
1,C=CC(C)(O)CC(C)CCC=C(C)C (stereo not shown) [Compound 15],46 µg/mL
2,C=CC(C)(O)CCC(C)CCC=C(C)C (stereo not shown) [Compound 16],48 µg/mL
3,C=CC(C)(O)C(C)CC(C)CCC=C(C)C (stereo not shown) [Compound 17],48 µg/mL
4,"CC(=O)CCC=C(C)CCC=C(C)C [Geranyl acetone (1), geranyl acetone, reference compound]",48 µg/mL

# Tested on: Enterococcus faecalis ATCC 51299
# Test: not given
# Set-up: method as in doi:10.1002/ffj.3238
# Settings: data presented by the authors before; cited from earlier work
row,Compound,Minimum Inhibitory Concentrations MIC
1,C=CC(C)(O)CC(C)CCC=C(C)C (stereo not shown) [Compound 15],48 µg/mL
2,C=CC(C)(O)CCC(C)CCC=C(C)C (stereo not shown) [Compound 16],38 µg/mL
3,C=CC(C)(O)C(C)CC(C)CCC=C(C)C (stereo not shown) [Compound 17],38 µg/mL
4,"CC(=O)CCC=C(C)CCC=C(C)C [Geranyl acetone (1), geranyl acetone, reference compound]",36 µg/mL

# Tested on: Enterococcus faecium ATCC 35667
# Test: not given
# Set-up: method as in doi:10.1002/ffj.3238
# Settings: data presented by the authors before; cited from earlier work
row,Compound,Minimum Inhibitory Concentrations MIC
1,C=CC(C)(O)CC(C)CCC=C(C)C (stereo not shown) [Compound 15],38 µg/mL
2,C=CC(C)(O)CCC(C)CCC=C(C)C (stereo not shown) [Compound 16],36 µg/mL
3,C=CC(C)(O)C(C)CC(C)CCC=C(C)C (stereo not shown) [Compound 17],38 µg/mL
4,"CC(=O)CCC=C(C)CCC=C(C)C [Geranyl acetone (1), geranyl acetone, reference compound]",28 µg/mL

# Tested on: Escherichia coli ATCC 25922
# Test: not given
# Set-up: method as in doi:10.1002/ffj.3238
# Settings: data presented by the authors before; cited from earlier work
row,Compound,Minimum Inhibitory Concentrations MIC
1,C=CC(C)(O)CC(C)CCC=C(C)C (stereo not shown) [Compound 15],28 µg/mL
2,C=CC(C)(O)CCC(C)CCC=C(C)C (stereo not shown) [Compound 16],32 µg/mL
3,C=CC(C)(O)C(C)CC(C)CCC=C(C)C (stereo not shown) [Compound 17],46 µg/mL
4,"CC(=O)CCC=C(C)CCC=C(C)C [Geranyl acetone (1), geranyl acetone, reference compound]",26 µg/mL

# Tested on: Klebsiella pneumoniae ATCC 700603
# Test: not given
# Set-up: method as in doi:10.1002/ffj.3238
# Settings: data presented by the authors before; cited from earlier work
row,Compound,Minimum Inhibitory Concentrations MIC
1,C=CC(C)(O)CC(C)CCC=C(C)C (stereo not shown) [Compound 15],16 µg/mL
2,C=CC(C)(O)CCC(C)CCC=C(C)C (stereo not shown) [Compound 16],24 µg/mL
3,C=CC(C)(O)C(C)CC(C)CCC=C(C)C (stereo not shown) [Compound 17],18 µg/mL
4,"CC(=O)CCC=C(C)CCC=C(C)C [Geranyl acetone (1), geranyl acetone, reference compound]",18 µg/mL

# Tested on: Acinetobacter baumannii ATCC 19606
# Test: not given
# Set-up: method as in doi:10.1002/ffj.3238
# Settings: data presented by the authors before; cited from earlier work
row,Compound,Minimum Inhibitory Concentrations MIC
1,C=CC(C)(O)CC(C)CCC=C(C)C (stereo not shown) [Compound 15],16 µg/mL
2,C=CC(C)(O)CCC(C)CCC=C(C)C (stereo not shown) [Compound 16],22 µg/mL
3,C=CC(C)(O)C(C)CC(C)CCC=C(C)C (stereo not shown) [Compound 17],16 µg/mL
4,"CC(=O)CCC=C(C)CCC=C(C)C [Geranyl acetone (1), geranyl acetone, reference compound]",18 µg/mL
